Test results taken from ChEMBL document CHEMBL2203128, “Antibacterial activity of substituted 5-methylbenzo[c]phenanthridinium derivatives” (2012).
≈ marks a conversion by molar mass, not a printed value.

How the values were obtained:
Type in all cases: functional
Enterococcus faecalis [1] = assay: Antimicrobial activity against vancomycin-sensitive Enterococcus faecalis ATCC 19433 by CLSI protocol based broth microdilution method
Enterococcus faecalis [2] = assay: Antimicrobial activity against vancomycin-resistant Enterococcus faecalis ATCC 51575 by CLSI protocol based broth microdilution method
Staphylococcus aureus [3] = assay: Antimicrobial activity against methicillin-resistant Staphylococcus aureus ATCC 33591 by CLSI protocol based broth microdilution method
Staphylococcus aureus [4] = assay: Antimicrobial activity against methicillin-sensitive Staphylococcus aureus 8325-4 by CLSI protocol based broth microdilution method

| SMILES | MIC (Enterococcus faecalis [1]) [µg/mL] | MIC (Enterococcus faecalis [2]) [µg/mL] | MIC (Staphylococcus aureus [3]) [µg/mL] | MIC (Staphylococcus aureus [4]) [µg/mL] |
| --- | --- | --- | --- | --- |
| COc1cc2c(ccc3c4ccc(OC)c(OC)c4c[n+](C)c23)c(-c2cccnc2)c1OC.[Cl-] | 32 | 32 | 32 | 8 |
| COc1cc2c(ccc3c4ccc(OC)c(OC)c4c[n+](C)c23)c(-c2ccoc2)c1OC.[Cl-] | 16 | 16 | 1 | 1 |
| COc1cc2c(ccc3c4ccc(OC)c(OC)c4c[n+](C)c23)c(-c2ccc(N(C)C)cc2)c1OC.[Cl-] | 8 | 8 | 1 | 1 |
| COc1cc(-c2c(OC)c(OC)cc3c2ccc2c4ccc(OC)c(OC)c4c[n+](C)c32)cc(OC)c1OC.[Cl-] | 32 | 32 | 4 | 4 |
| COc1cc2c(ccc3c4ccc(OC)c(OC)c4c[n+](C)c23)c(C2CCCCC2)c1OC.[Cl-] | 8 | 8 | 2 | 1 |
| COc1cc2c(ccc3c4ccc(OC)c(OC)c4c[n+](C)c23)c(C2=CCCCC2)c1OC.[Cl-] | 16 | 32 | 4 | 2 |
| C=Cc1c(OC)c(OC)cc2c1ccc1c3ccc(OC)c(OC)c3c[n+](C)c21.[Cl-] | 8 | 8 | 2 | 1 |
| COc1cc2c(ccc3c4ccc(OC)c(OC)c4c[n+](C)c23)c(C2CC2)c1OC.[Cl-] | 8 | 8 | 2 | 1 |
| COc1cc2c(-c3ccc(-c4ccccc4)cc3)cc3c4ccc(OC)c(OC)c4c[n+](C)c3c2cc1OC.[Cl-] | 16 | 16 | 0.5 | 0.5 |
| COc1cc2c(ccc3c4ccc(OC)c(OC)c4c[n+](C)c23)c(-c2ccc(-c3ccccc3)cc2)c1OC.[Cl-] | 4 | 8 | 0.5 | 0.5 |
| COc1cc2c(-c3ccccc3)cc3c4ccc(OC)c(OC)c4c[n+](C)c3c2cc1OC.[Cl-] | 8 | 16 | 2 | 1 |
| COc1cc2ccc3c4ccc(OC)c(OC)c4c[n+](C)c3c2cc1OC.[Cl-] | > 64 | > 64 | 32 | 32 |
| COc1cc2c(-c3ccc(-c4ccccc4)cc3)cc3c4ccc5c(c4c[n+](C)c3c2cc1OC)OCO5.[Cl-] | 4 | 8 | 2 | 2 |
| COc1cc2c(ccc3c4ccc5c(c4c[n+](C)c23)OCO5)c(-c2ccc(-c3ccccc3)cc2)c1OC.[Cl-] | 8 | 8 | 2 | 2 |
| COc1cc2c(ccc3c4ccc5c(c4c[n+](C)c23)OCO5)c(-c2ccccc2)c1OC.[Cl-] | 8 | 8 | 2 | 1 |
| COc1cc2ccc3c4ccc5c(c4c[n+](C)c3c2cc1OC)OCO5.[Cl-] | 64 | > 64 | 32 | 32 |
| COc1cc2c(ccc3c4ccc(OC)c(OC)c4c[n+](C)c23)c(-c2ccccc2)c1OC.[Cl-] | 4 | 4 | 1 | 1 |
| CCC[C@@H]1C[C@@H](C(=O)N[C@@H]([C@H]2O[C@H](SC)[C@H](O)[C@@H](O)[C@H]2O)[C@H](C)Cl)N(C)C1 [CLINDAMYCIN] | 2 (≈ 4.71 µM) | > 64 | > 64 | 0.03 (≈ 0.0706 µM) |
| CC[C@H]1OC(=O)[C@H](C)[C@@H](O[C@H]2C[C@@](C)(OC)[C@@H](O)[C@H](C)O2)[C@H](C)[C@@H](O[C@@H]2O[C@H](C)C[C@H](N(C)C)[C@H]2O)[C@](C)(O)C[C@@H](C)C(=O)[C@H](C)[C@@H](O)[C@]1(C)O [ERYTHROMYCIN] | 1 (≈ 1.36 µM) | > 64 | > 64 | 0.13 (≈ 0.177 µM) |
| Cc1onc(-c2ccccc2)c1C(=O)N[C@@H]1C(=O)N2[C@@H]1SC(C)(C)[C@@H]2C(=O)O [OXACILLIN] | 8 (≈ 19.9 µM) | > 64 | > 64 | 0.06 (≈ 0.149 µM) |
| C[n+]1cc2c3c(ccc2c2ccc4cc5c(cc4c21)OCO5)OCO3.[Cl-] [SANGUINARIUM CHLORIDE] | 8 | 16 | 2 | 2 |
| CN(C)[C@@H]1C(O)=C(C(N)=O)C(=O)[C@@]2(O)C(O)=C3C(=O)c4c(O)cccc4[C@@](C)(O)[C@H]3C[C@@H]12 [TETRACYCLINE] | 0.5 (≈ 1.13 µM) | > 64 | 64 (≈ 144 µM) | 0.06 (≈ 0.135 µM) |
| CN[C@H](CC(C)C)C(=O)N[C@H]1C(=O)N[C@@H](CC(N)=O)C(=O)N[C@H]2C(=O)N[C@H]3C(=O)N[C@H](C(=O)N[C@H](C(=O)O)c4cc(O)cc(O)c4-c4cc3ccc4O)[C@H](O)c3ccc(c(Cl)c3)Oc3cc2cc(c3O[C@@H]2O[C@H](CO)[C@@H](O)[C@H](O)[C@H]2O[C@H]2C[C@](C)(N)[C@H](O)[C@H](C)O2)Oc2ccc(cc2Cl)[C@H]1O [VANCOMYCIN] | 1 (≈ 0.69 µM) | > 64 | – | – |
